Data reported in the supplement of paper PMC10307832.

How the values were obtained:
Assay in all cases: relative viability (nuclei count vs DMSO), 5 days (fraction); higher = more cells survive
ALW-II-49-7 + Crizotinib = compound: Cc1ccc(C(=O)Nc2cccc(C(F)(F)F)c2)cc1Nc1cncc(C(N)=O)c1 [ALW-II-49-7] + C[C@@H](Oc1cc(-c2cnn(C3CCNCC3)c2)cnc1N)c1c(Cl)ccc(F)c1Cl [Crizotinib] (partner 1 µM)
Procedure, shortened: (§1)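 Relative viability was taken as the ratio of nuclei in treated wells to nuclei in vehicle wells. Lung cancer cell lines in 1536-well plates received compounds by pin tool one day after seeding, either one drug alone or a fixed anchor-drug dose plus five library-drug doses (not always all listed) in √10 steps. Nuclei were counted on 4× images after 5 days of treatment, and values are medians of duplicate plates.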

XMD13-2 + Decitabine = compound: C1CC1C(=O)NC2=NNC3=C2C=CC(=C3)C4=CC(=CC=C4)C(=O)NC5CC5 [XMD13-2] + Nc1ncn([C@H]2C[C@H](O)[C@@H](CO)O2)c(=O)n1 [Decitabine] (partner 2 µM)
Procedure, shortened: as §1

Dasatinib + Phenformin = compound: Cc1nc(Nc2ncc(C(=O)Nc3c(C)cccc3Cl)s2)cc(N2CCN(CCO)CC2)n1 [Dasatinib] + N=C(N)NC(=N)NCCc1ccccc1 [Phenformin] (partner 250 µM)
Procedure, shortened: as §1

ALW-II-49-7 + OSI-027 = compound: Cc1ccc(C(=O)Nc2cccc(C(F)(F)F)c2)cc1Nc1cncc(C(N)=O)c1 [ALW-II-49-7] + COc1cccc2cc(-c3nc([C@H]4CC[C@H](C(=O)O)CC4)n4ncnc(N)c34)[nH]c12 [OSI-027] (partner 0.5 µM)
Procedure, shortened: as §1

| Cell Line | relative viability (ALW-II-49-7 + Crizotinib; first compound 0.08 µM) | relative viability (ALW-II-49-7 + Crizotinib; first compound 0.253 µM) | relative viability (ALW-II-49-7 + Crizotinib; first compound 0.8 µM) | relative viability (ALW-II-49-7 + Crizotinib; first compound 2.53 µM) | relative viability (ALW-II-49-7 + Crizotinib; first compound 8 µM) | relative viability (XMD13-2 + Decitabine; first compound 0.05 µM) | relative viability (XMD13-2 + Decitabine; first compound 0.1581 µM) | relative viability (XMD13-2 + Decitabine; first compound 0.5 µM) | relative viability (XMD13-2 + Decitabine; first compound 1.581 µM) | relative viability (XMD13-2 + Decitabine; first compound 5 µM) | relative viability (Dasatinib + Phenformin; first compound 0.005 µM) | relative viability (Dasatinib + Phenformin; first compound 0.01581 µM) | relative viability (Dasatinib + Phenformin; first compound 0.05 µM) | relative viability (Dasatinib + Phenformin; first compound 0.1581 µM) | relative viability (Dasatinib + Phenformin; first compound 0.5 µM) | relative viability (ALW-II-49-7 + OSI-027; first compound 0.08 µM) | relative viability (ALW-II-49-7 + OSI-027; first compound 0.253 µM) | relative viability (ALW-II-49-7 + OSI-027; first compound 0.8 µM) | relative viability (ALW-II-49-7 + OSI-027; first compound 2.53 µM) | relative viability (ALW-II-49-7 + OSI-027; first compound 8 µM) |
| --- | --- | --- | --- | --- | --- | --- | --- | --- | --- | --- | --- | --- | --- | --- | --- | --- | --- | --- | --- | --- |
| NCI-H1355 | 1 | 1.03 | 1.11 | 0.928 | 0.935 | 0.358 | 0.385 | 0.386 | 0.379 | 0.375 | 0.435 | 0.391 | 0.432 | 0.352 | 0.325 | 0.372 | 0.404 | 0.363 | 0.364 | 0.353 |
| NCI-H1650 | 0.946 | 0.859 | 0.931 | 1.01 | 1.14 | 0.363 | 0.457 | 0.413 | 0.409 | 0.52 | 0.401 | 0.302 | 0.319 | 0.217 | 0.178 | 0.444 | 0.412 | 0.451 | 0.631 | 0.687 |
| SW 1573 | 0.884 | 0.747 | 0.748 | 1.1 | 0.707 | 0.775 | 0.464 | 0.608 | 0.498 | 0.431 | 0.417 | 0.326 | 0.288 | 0.217 | 0.18 | 0.683 | 0.653 | 0.524 | 0.656 | 0.505 |
| NCI-H661 | – | 1 | 0.922 | – | 1.04 | 0.611 | 0.56 | 0.56 | 0.537 | 0.461 | 0.266 | 0.222 | 0.249 | 0.226 | 0.243 | 0.552 | 0.773 | 0.781 | 0.78 | 0.452 |
| LU99A | 0.535 | 0.508 | 0.521 | 0.604 | 0.546 | 0.97 | 0.881 | 0.945 | 0.857 | 0.808 | 0.845 | – | 0.888 | 0.752 | 0.472 | 0.293 | 0.288 | 0.282 | 0.282 | 0.294 |
| LCLC-97TM1 | 0.609 | 0.262 | 0.532 | 0.313 | 0.297 | 0.241 | 0.23 | 0.202 | 0.168 | 0.195 | 0.451 | 0.439 | 0.45 | 0.449 | 0.168 | 0.514 | 0.46 | 0.466 | 0.527 | 0.379 |
| LC-2-ad | 0.354 | 0.461 | 0.476 | 0.378 | 0.393 | 0.797 | 0.728 | 0.828 | 0.79 | 0.712 | 0.636 | 0.623 | 0.411 | 0.306 | 0.265 | 0.733 | 0.843 | 0.783 | 0.73 | 0.771 |
| NCI-H1944 | 1.14 | 0.981 | 1.06 | 1.09 | 1.12 | 0.438 | 0.436 | 0.493 | 0.474 | 0.482 | 0.185 | 0.149 | 0.15 | 0.154 | 0.123 | 0.393 | 0.413 | 0.397 | 0.353 | 0.303 |
| HOP-62 | 0.855 | 1.05 | 1.02 | 0.563 | 0.817 | 0.233 | 0.204 | 0.195 | 0.203 | 0.199 | 0.687 | 0.608 | 0.704 | 0.569 | 0.281 | 0.768 | 0.96 | 0.875 | 0.721 | 0.608 |
| NCI-H2347 | 0.683 | 0.69 | 0.676 | 0.671 | 0.583 | 0.599 | 0.565 | 0.652 | 0.566 | 0.65 | 0.278 | 0.209 | 0.22 | 0.178 | 0.212 | 0.386 | 0.396 | 0.443 | 0.36 | 0.276 |
| NCI-H2087 | 1.07 | 0.843 | 0.957 | 0.758 | 0.851 | 0.322 | 0.291 | 0.344 | 0.26 | 0.279 | 0.517 | 0.461 | 0.562 | 0.343 | 0.161 | 0.578 | 0.537 | 0.525 | 0.547 | 0.51 |
| EPLC-272H | 0.869 | 0.754 | 0.85 | 1.15 | 1 | 0.363 | 0.391 | 0.485 | 0.339 | 0.314 | 0.313 | 0.252 | 0.386 | 0.261 | 0.0761 | 0.277 | – | 0.278 | 0.293 | 0.265 |
| LXF-289 | 0.817 | 0.817 | 0.911 | 0.923 | 0.876 | 0.38 | 0.377 | 0.402 | 0.399 | 0.379 | 0.543 | 0.512 | 0.414 | 0.34 | 0.0987 | 0.697 | 0.901 | 0.846 | 0.81 | 0.735 |
| COR-L23 | 0.688 | 0.601 | 0.626 | 0.614 | 0.793 | 0.438 | 0.399 | 0.513 | 0.458 | 0.376 | 0.431 | 0.348 | 0.384 | 0.374 | 0.321 | 0.556 | 0.709 | 0.828 | 0.715 | 0.677 |
| RERF-LC-KJ | 0.831 | 0.924 | 0.992 | 0.831 | 0.741 | 0.813 | 0.747 | 0.711 | 0.702 | 0.713 | 0.406 | 0.348 | 0.363 | 0.355 | 0.305 | 0.511 | 0.564 | 0.504 | 0.559 | 0.535 |
